# Values quoted from earlier work in US11555010B2, “Diamide antimicrobial agents” (BROWN UNIVERSITY, priority 2019, dated 2023).
# Test system: LT
# Conditions: cited from earlier work
compound,measurement,value
CC1=N[C@@H]2[C@@H](O)[C@H](O)[C@@H](CO)O[C@@H]2S1 [NAG-thiazoline],binding to LT,weak binder
